Earlier results, collected in patent US20260199330A1, “MEDICAL METHOD AND USE” (ViiV Healthcare UK (No.3) Limited, priority 2024, published 2026).

Key:
[1] = oral 60 mg once daily for 2 years, LAI116482 (LATTE)
[2] = supratherapeutic oral CAB 150 mg q12 h×3 doses, TQT study

Question: Which “median (steady state) Cmax, long-term safety threshold” value [1] does the source give for `C[C@H]1CO[C@@H]2Cn3cc(C(=O)NCc4ccc(F)cc4F)c(=O)c(O)c3C(=O)N12` [Cabotegravir, (3S, 11aR)-N-((2,4-difluorophenyl)methyl)-6-hydroxy-3-methyl-5,7-dioxo-2,3,5, 11,11a-hexahydro(1,3)oxazolo(3,2-a)pyrido(1,2-d)pyrazine-8-carboxamide] here?
Answer: 13100 ng/mL

Question: And the “geometric mean Cmax, short-term safety threshold” value [2]?
Answer: 22500 ng/mL
